Test: TIMS collisional cross section (CCS, N2) of the lipid ion; higher = larger ion cross section
Conditions: sample type: HeLa; ionization mode: positive; one isomer drawn

| Structure (SMILES) | TIMS collisional cross section [Å²] |
| --- | --- |
| CC/C=C\C/C=C\C/C=C\C/C=C\C/C=C\CCCCCC(=O)OC[C@@H](COC(=O)CCCCCCC/C=C\CCCCCCCC)OC(=O)CCC/C=C\C/C=C\C/C=C\C/C=C\CCCCC [TG 18:1_20:4_22:5] (ion (formula + adduct): [C63H102O6+NH4] 1+) | 333.4 |
| CCCCCCCC/C=C\CCCCCCCCCCCC(=O)OC[C@@H](COC(=O)CCCCCCC/C=C\CCCCCCCC)OC(=O)CCCCCCCCCCC/C=C\CCCCCCCC [TG 18:1_22:1_22:1] (ion (formula + adduct): [C65H120O6+NH4] 1+) | 349.2 |
| CC/C=C\C/C=C\C/C=C\C/C=C\C/C=C\C/C=C\CCC(=O)OC[C@@H](COC(=O)CCC/C=C\C/C=C\C/C=C\C/C=C\CCCCC)OC(=O)CCC/C=C\C/C=C\C/C=C\C/C=C\CCCCC [TG 20:4_20:4_22:6] (ion (formula + adduct): [C65H98O6+NH4] 1+) | 333.7 |
| CC/C=C\C/C=C\C/C=C\C/C=C\C/C=C\C/C=C\CCC(=O)OC[C@@H](COC(=O)CCC/C=C\C/C=C\C/C=C\C/C=C\CCCCC)OC(=O)CCCCC/C=C\C/C=C\C/C=C\C/C=C\C/C=C\CC [TG 20:4_22:5_22:6] (ion (formula + adduct): [C67H100O6+NH4] 1+) | 338.1 |

Same assay, conditions: sample type: Liver; ionization mode: positive; one isomer drawn

| Structure (SMILES) | TIMS collisional cross section [Å²] |
| --- | --- |
| CC/C=C\C/C=C\C/C=C\C/C=C\C/C=C\C/C=C\CCC(=O)OC[C@@H](COC(=O)CCCCCCC/C=C\CCCCCCCC)OC(=O)CCCCCCCCCCCCCCCCCCCCC [TG 18:1_22:0_22:6] (ion (formula + adduct): [C65H112O6+NH4] 1+) | 344.7 |
| CCCCC/C=C\C/C=C\CCCCCCCCCCCC(=O)OC[C@@H](COC(=O)CCCCCCC/C=C\CCCCCCCC)OC(=O)CCCCCCCCCCC/C=C\CCCCCCCC [TG 18:1_22:1_22:2] (ion (formula + adduct): [C65H118O6+NH4] 1+) | 346.9 |
| CC/C=C\C/C=C\C/C=C\C/C=C\C/C=C\C/C=C\CCC(=O)OC[C@@H](COC(=O)CCCCCCC/C=C\CCCCCCCC)OC(=O)CCCCCCCCCCC/C=C\CCCCCCCC [TG 18:1_22:1_22:6] (ion (formula + adduct): [C65H110O6+NH4] 1+) | 342.5 |
| C(OC(=O)CCCCCCC/C=C\C/C=C\CCCCC)[C@]([H])(OC(CCCCCCC/C=C\C/C=C\CCCCC)=O)COC(CCCCCCC/C=C\C/C=C\CCCCC)=O [TG 18:2_18:2_18:2] (ion (formula + adduct): [C57H98O6+NH4] 1+) | 321.8 |
| CCCCC/C=C\C/C=C\CCCCCCCC(=O)OC[C@H](COC(=O)CCCCCCC/C=C\CCCCCCCCC)OC(=O)CCCCCCC/C=C\C/C=C\CCCCC [TG 18:2_18:2_19:1] (ion (formula + adduct): [C58H102O6+NH4] 1+) | 325.1 |
| CCCCC/C=C\C/C=C\C/C=C\C/C=C\CCCC(=O)OC[C@@H](COC(=O)CCCCCCC/C=C\C/C=C\CCCCC)OC(=O)CCCCCCC/C=C\C/C=C\CCCCC [TG 18:2_18:2_20:4] (ion (formula + adduct): [C59H98O6+NH4] 1+) | 323.3 |
| CC/C=C\C/C=C\C/C=C\C/C=C\C/C=C\CCCCCC(=O)OC[C@@H](COC(=O)CCCCCCC/C=C\C/C=C\CCCCC)OC(=O)CCCCCCC/C=C\C/C=C\CCCCC [TG 18:2_18:2_22:5] (ion (formula + adduct): [C61H100O6+NH4] 1+) | 327.9 |
| CC/C=C\C/C=C\C/C=C\C/C=C\C/C=C\C/C=C\CCC(=O)OC[C@@H](COC(=O)CCCCCCC/C=C\C/C=C\CCCCC)OC(=O)CCCCCCC/C=C\C/C=C\CCCCC [TG 18:2_18:2_22:6] (ion (formula + adduct): [C61H98O6+NH4] 1+) | 327.3 |
| CC/C=C\C/C=C\C/C=C\C/C=C\CCCCC(=O)OC[C@@H](COC(=O)CCCCCCC/C=C\C/C=C\CCCCC)OC(=O)CCCC/C=C\C/C=C\C/C=C\CCCCC [TG 18:2_18:3_18:4] (ion (formula + adduct): [C57H92O6+NH4] 1+) | 314.3 |
| CC/C=C\C/C=C\C/C=C\CCCCCCCC(=O)O[C@@H](COC(=O)CCC/C=C\C/C=C\C/C=C\C/C=C\CCCCC)COC(=O)CCCCCCC/C=C\C/C=C\CCCCC [TG 18:2_18:3_20:4] (ion (formula + adduct): [C59H96O6+NH4] 1+) | 321.6 |
| CC/C=C\C/C=C\C/C=C\C/C=C\C/C=C\CCCC(=O)OC[C@@H](COC(=O)CCCCCCC/C=C\C/C=C\CCCCC)OC(=O)CCCCCCC/C=C\C/C=C\C/C=C\CC [TG 18:2_18:3_20:5] (ion (formula + adduct): [C59H94O6+NH4] 1+) | 319.5 |
| CC/C=C\C/C=C\C/C=C\C/C=C\C/C=C\C/C=C\CCC(=O)OC[C@@H](COC(=O)CCCCCCC/C=C\C/C=C\CCCCC)OC(=O)CCCCCCC/C=C\C/C=C\C/C=C\CC [TG 18:2_18:3_22:6] (ion (formula + adduct): [C61H96O6+NH4] 1+) | 324.9 |
| CCCCC/C=C\C/C=C\CCCCCCCC(=O)OC[C@H](COC(=O)CCCCCCCCC/C=C\CCCCCCCC)OC(=O)CCCCCCC/C=C\CCCCCCCCC [TG 18:2_19:1_20:1] (ion (formula + adduct): [C60H108O6+NH4] 1+) | 332.8 |
| CCCCC/C=C\C/C=C\CCCCCCCC(=O)OC[C@H](COC(=O)CCCCCCCCC/C=C\CCCCCCCCCC)OC(=O)CCCCCCC/C=C\CCCCCCCCC [TG 18:2_19:1_22:1] (ion (formula + adduct): [C62H112O6+NH4] 1+) | 338.2 |
| CCCCC/C=C\C/C=C\CCCCCCCCCC(=O)O[C@H](COC(=O)CCCCCCC/C=C\C/C=C\CCCCC)COC(=O)CCCCCCCCCCCCCCCCCCCCC [TG 18:2_20:2_22:0] (ion (formula + adduct): [C63H114O6+NH4] 1+) | 341.4 |
| CCCCC/C=C\C/C=C\C/C=C\C/C=C\CCCCCC(=O)OC[C@@H](COC(=O)CCCCCCC/C=C\C/C=C\CCCCC)OC(=O)CCCCCCCCC/C=C\C/C=C\CCCCC [TG 18:2_20:2_22:4] (ion (formula + adduct): [C63H106O6+NH4] 1+) | 335.7 |
| CC/C=C\C/C=C\C/C=C\C/C=C\C/C=C\CCCCCC(=O)OC[C@@H](COC(=O)CCCCCCC/C=C\C/C=C\CCCCC)OC(=O)CCC/C=C\C/C=C\C/C=C\C/C=C\CCCCC [TG 18:2_20:4_22:5] (ion (formula + adduct): [C63H100O6+NH4] 1+) | 333 |
| CC/C=C\C/C=C\C/C=C\C/C=C\C/C=C\C/C=C\CCC(=O)OC[C@@H](COC(=O)CCCCCCC/C=C\C/C=C\CCCCC)OC(=O)CCC/C=C\C/C=C\C/C=C\C/C=C\CCCCC [TG 18:2_20:4_22:6] (ion (formula + adduct): [C63H98O6+NH4] 1+) | 330.4 |
| CC/C=C\C/C=C\C/C=C\C/C=C\C/C=C\C/C=C\CCC(=O)OC[C@@H](COC(=O)CCCCCCC/C=C\C/C=C\CCCCC)OC(=O)CCCCC/C=C\C/C=C\C/C=C\C/C=C\CCCCC [TG 18:2_22:4_22:6] (ion (formula + adduct): [C65H102O6+NH4] 1+) | 335.6 |
| CC/C=C\C/C=C\C/C=C\C/C=C\C/C=C\C/C=C\CCC(=O)OC[C@@H](COC(=O)CCCCCCC/C=C\C/C=C\CCCCC)OC(=O)CC/C=C\C/C=C\C/C=C\C/C=C\C/C=C\C/C=C\CC [TG 18:2_22:6_22:6] (ion (formula + adduct): [C65H98O6+NH4] 1+) | 333.6 |
| C1C[C@H](O)C(CO)[C@]2([H])CCC3=C([C@]21C)CC[C@]1(C)[C@@]([H])([C@H](C)CC/C=C(/C)\C)CC[C@]13[H] (stereo partly drawn) [zymosterol intermediate 1a] (ion (formula + adduct): [C28H46O2+H] 1+) | 219 |

Same assay, conditions: sample type: plasma; ionization mode: positive; one isomer drawn

| Structure (SMILES) | TIMS collisional cross section [Å²] |
| --- | --- |
| CC/C=C\C/C=C\C/C=C\C/C=C\C/C=C\C/C=C\CCC(=O)OC[C@@H](COC(=O)CCCCCCC/C=C\CCCCCCCC)OC(=O)CCC/C=C\C/C=C\C/C=C\C/C=C\CCCCC [TG 18:1_20:4_22:6] (ion (formula + adduct): [C63H100O6+NH4] 1+) | 332.5 |
| CC/C=C\C/C=C\C/C=C\CCCCCCCC(=O)OC[C@@H](COC(=O)CCCCCCC/C=C\C/C=C\CCCCC)OC(=O)CCCCCCC/C=C\C/C=C\CCCCC [TG 18:2_18:2_18:3] (ion (formula + adduct): [C57H96O6+NH4] 1+) | 317.6 |
| CC/C=C\C/C=C\C/C=C\C/C=C\C/C=C\C/C=C\CCC(=O)OC[C@@H](COC(=O)CCCCCCC/C=C\C/C=C\CCCCC)OC(=O)CCCCCCC/C=C\C/C=C\CCCCC [TG 18:2_18:2_22:6] (ion (formula + adduct): [C61H98O6+NH4] 1+) | 327 |
| CC/C=C\C/C=C\C/C=C\CCCCCCCC(=O)O[C@@H](COC(=O)CCC/C=C\C/C=C\C/C=C\C/C=C\CCCCC)COC(=O)CCCCCCC/C=C\C/C=C\CCCCC [TG 18:2_18:3_20:4] (ion (formula + adduct): [C59H96O6+NH4] 1+) | 321.6 |
| CCCCC/C=C\C/C=C\CCCCCCCC(=O)OC[C@H](COC(=O)CCCCCCCCCCC/C=C\CCCCCCCC)OC(=O)CCCCCCCCC/C=C\CCCCCCCC [TG 18:2_20:1_22:1] (ion (formula + adduct): [C63H114O6+NH4] 1+) | 340.8 |
| CC(C)CC[C@@H](O)[C@](C)(O)[C@H]1CC[C@@]2(O)C3=CC(=O)[C@@H]4C[C@@H](O)[C@@H](O)C[C@]4(C)[C@H]3CC[C@]12C [ponasterone A] (ion (formula + adduct): [C27H44O6+H] 1+) | 219 |

Test: as above
Conditions: sample type: Mouse Liver; ion (formula + adduct): [C40H79NO3-H] 1-; ionization mode: negative; one isomer drawn
Protocol: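 Lipid extracts of human plasma (NIST SRM 1950), mouse liver or HeLa cells were separated by nanoflow C18 LC (30 min gradient) and analysed by TIMS-PASEF on a timsTOF Pro. Ion mobility was calibrated with the Agilent tuning mix (negative mode ions) and converted to collisional cross sections (Mason–Schamp, N2).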

| Structure (SMILES) | TIMS collisional cross section [Å²] |
| --- | --- |
| CCCCCCCCCCCCC/C=C/[C@@H](O)[C@H](CO)NC(=O)CCCCCCCCCCCCCCCCCCCCC [Cer d18:1_22:0] | 265 |

Same assay, conditions: sample type: Mouse Liver; ion (formula + adduct): [C81H142O17P2-H] 2-; ionization mode: negative; one isomer drawn

| Structure (SMILES) | TIMS collisional cross section [Å²] |
| --- | --- |
| CCCCC/C=C\C/C=C\CCCCCCCC(=O)OC[C@H](COP(=O)(O)OCC(O)COP(=O)(O)OC[C@@H](COC(=O)CCCCCCC/C=C\C/C=C\CCCCC)OC(=O)CCCCCCC/C=C\C/C=C\CCCCC)OC(=O)CCCCCCC/C=C\C/C=C\CCCCC (stereo partly drawn) [CL 18:2_18:2_18:2_18:2] | 411.8 |

Reference: the supplement of paper PMC6965134
